From patent US7270837B2, “Anti-inflammatory cranberry flavonol extract preparations” (Rutgers, The State University of New Jersey, priority 2003, dated 2007)
Entries after “also recorded” stand apart in the source; their conditions may differ.

System: TPA-induced edema of mouse ears
Assay: TPA-induced mouse ear edema assay of quercetin-3-O-(6″-benzoyl)-β-galactoside (Example 3)
Assay type: in vivo, mouse (CD-1 female)
Settings: topical, purified compound
Method: The anti-inflammatory activity of quercetin-3-O-(6″-benzoyl)-β-galactoside (Peak 19) was tested in vivo with the 12-O-tetradecanoylphorbol-13-acetate (TPA)-induced mouse ear edema assay. Each of the treatments was topically applied to both ears of at least five CD-1 female mice. Treatments included application of either acetone or curcumin controls or the test extract in 20 μl of acetone twenty minutes prior to application of 1.5 nmol of TPA in acetone. After 7 hours post-treatment, mice were sacrificed and 6 mm diameter ear punch biopsies were taken and weighed. The ratio of the difference in the weight of ear punches between TPA treated groups receiving pretreatments of acetone and the test extract, respectively, to the difference in the weight of ear punches between acetone pretreated groups subsequently treated with TPA and acetone, respectively, indicates the degree of anti-inflammatory activity of the test extract.

Structure (SMILES): O=C(OC[C@H]1O[C@@H](Oc2c(-c3ccc(O)c(O)c3)oc3cc(O)cc(O)c3c2=O)[C@H](O)[C@@H](O)[C@H]1O)c1ccccc1 [quercetin-3-O-(6″-benzoyl)-β-galactoside]
- anti-inflammatory activity in the TPA-induced mouse ear edema assay (in words): potent anti-inflammatory agent; also recorded: highly effective inhibitor of inflammation
